Test results reported in patent US7598258B2, “Quinoline derivatives and quinazoline derivatives inhibiting autophosphorylation of macrophage colony stimulating factor receptor” (Kirin Beer Kabushiki Kaisha, priority 2002, dated 2009).

Molecular target: T1, Human KDR (Homo sapiens, UniProt P35968)
T1 construct: expressed in transfected cells; host or cells: NIH3T3 cells (mouse fibroblasts)
Assay: Inhibition of KDR phosphorylation in human KDR-transfected NIH3T3 cells (ELISA);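 for Selection ratio (KDR phosphorylation IC50 / c-fms phosphorylation IC50): class 2 means ratio of 10 or more and class 3 means 50 or more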
Type: cell-based
Conditions: for Selection ratio (KDR phosphorylation IC50 / c-fms phosphorylation IC50): class 0-3; for IC50: human KDR-transfected NIH3T3 cells, VEGF 100 ng/ml, ELISA, read-out: KDR phosphorylation 50% inhibitory concentration (IC50)
Outline: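 NIH3T3 cells transfected with human KDR, in 0.1% FCS medium, treated with compound 1 hr at 37° C, then stimulated with VEGF 100 ng/ml for 2 min. Lysate KDR phosphorylation measured by anti-phosphotyrosine capture/anti-KDR ELISA (A450); IC50 from inhibition normalized between VEGF-stimulated and unstimulated wells.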

T1 sequence (P35968 20-1356): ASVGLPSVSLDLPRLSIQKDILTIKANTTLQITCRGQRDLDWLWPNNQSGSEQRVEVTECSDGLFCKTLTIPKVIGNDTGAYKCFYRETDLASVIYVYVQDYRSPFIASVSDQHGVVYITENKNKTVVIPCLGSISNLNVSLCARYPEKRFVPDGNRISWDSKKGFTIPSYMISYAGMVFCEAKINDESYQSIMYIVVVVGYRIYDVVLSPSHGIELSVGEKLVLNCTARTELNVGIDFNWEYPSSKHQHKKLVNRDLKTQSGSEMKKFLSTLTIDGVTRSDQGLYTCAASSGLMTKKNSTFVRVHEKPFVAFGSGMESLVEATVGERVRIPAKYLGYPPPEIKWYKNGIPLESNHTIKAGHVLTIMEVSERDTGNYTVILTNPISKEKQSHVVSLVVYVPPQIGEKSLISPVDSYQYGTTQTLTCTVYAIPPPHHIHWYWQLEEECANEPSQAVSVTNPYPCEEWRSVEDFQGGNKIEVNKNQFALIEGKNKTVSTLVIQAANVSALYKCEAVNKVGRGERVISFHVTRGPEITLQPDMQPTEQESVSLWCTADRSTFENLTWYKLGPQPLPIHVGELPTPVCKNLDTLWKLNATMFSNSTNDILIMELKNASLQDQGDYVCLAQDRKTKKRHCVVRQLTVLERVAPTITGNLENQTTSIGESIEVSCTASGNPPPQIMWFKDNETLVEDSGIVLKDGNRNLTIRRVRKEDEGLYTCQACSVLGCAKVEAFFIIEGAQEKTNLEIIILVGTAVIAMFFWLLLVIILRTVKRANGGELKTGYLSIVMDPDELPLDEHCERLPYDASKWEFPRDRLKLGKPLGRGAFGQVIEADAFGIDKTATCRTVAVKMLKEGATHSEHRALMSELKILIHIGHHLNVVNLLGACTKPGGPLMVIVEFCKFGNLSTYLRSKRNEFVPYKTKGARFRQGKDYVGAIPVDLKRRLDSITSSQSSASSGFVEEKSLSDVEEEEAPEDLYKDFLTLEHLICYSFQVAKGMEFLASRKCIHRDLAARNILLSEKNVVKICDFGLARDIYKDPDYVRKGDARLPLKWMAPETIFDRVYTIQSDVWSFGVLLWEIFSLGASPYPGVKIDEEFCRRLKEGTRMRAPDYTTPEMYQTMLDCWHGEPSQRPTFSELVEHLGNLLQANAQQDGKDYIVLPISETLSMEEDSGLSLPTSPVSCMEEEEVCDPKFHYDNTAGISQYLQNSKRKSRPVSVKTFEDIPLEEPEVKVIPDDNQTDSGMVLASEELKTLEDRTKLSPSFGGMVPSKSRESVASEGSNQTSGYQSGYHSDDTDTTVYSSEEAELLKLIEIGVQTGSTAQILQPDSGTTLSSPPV

IC50	Compound	Selection ratio (KDR phosphorylation IC50 / c-fms phosphorylation IC50)
2.1 nM	COc1cc2nccc(Oc3ccc(NC(=O)N[C@H](C)c4ccc(F)cc4)c(C(F)(F)F)c3)c2cc1OC [Example 21, N-[4-[(6,7-Dimethoxy-4-quinolyl)oxy]-2-(trifluoromethyl)phenyl]-N′-[(1R)-1-(4-fluorophenyl)ethyl]urea]	0 (KDR phosphorylation 50% inhibitory concentration [μM]/c-fms phosphorylation 50% inhibitory concentration [μM] was less than 5)
39.9 nM	COc1cc2nccc(Oc3ccc(NC(=O)N[C@@H](C)c4nccs4)c(F)c3)c2cc1OC [Example 71, N-{4-[(6,7-Dimethoxy-4-quinolyl)oxy]-2-fluorophenyl}-N′-[(1S)-1-(1,3-thiazol-2-yl)ethyl]urea]	2 (when the value was 10 or more)
4.3 nM	COc1cc2nccc(Oc3ccc(NC(=O)NC(C)c4nc(C)cs4)c(C(F)(F)F)c3)c2cc1OC (stereo not shown) [Example 92, N-[4-[(6,7-Dimethoxy-4-quinolyl)oxy]-2-(trifluoromethyl)phenyl]-N′-[1-(4-methyl-1,3-thiazol-2-yl)ethyl]urea]	0 (KDR phosphorylation 50% inhibitory concentration [μM]/c-fms phosphorylation 50% inhibitory concentration [μM] was less than 5)
36.1 nM	COc1cc2nccc(Oc3ccc(NC(=O)NC(C)c4ncc(C)s4)c(C(F)(F)F)c3)c2cc1OC (stereo not shown) [Example 104, N-[4-[(6,7-Dimethoxy-4-quinolyl)oxy]-2-(trifluoromethyl)phenyl]-N′-[1-(5-methyl-1,3-thiazol-2-yl)ethyl]urea]	0 (KDR phosphorylation 50% inhibitory concentration [μM]/c-fms phosphorylation 50% inhibitory concentration [μM] was less than 5)
8.7 nM	COc1cc(Oc2ccnc3cc(OC)c(OC)cc23)ccc1NC(=O)N[C@H](C)c1cccc(Br)c1 [Example 59, N-[(1R)-1-(3-Bromophenyl)ethyl]-N′-{4-[(6,7-dimethoxy-4-quinolyl)oxy]-2-methoxyphenyl}urea]	0 (KDR phosphorylation 50% inhibitory concentration [μM]/c-fms phosphorylation 50% inhibitory concentration [μM] was less than 5)
16.5 nM	COc1cc2c(Oc3ccc(NC(=O)NC(C)c4ccc(F)cc4F)cc3F)ccnc2cc1OCCCN1CCOCC1 (stereo not shown) [Example 66, N-[1-(2,4-Difluorophenyl)ethyl]-N′-(3-fluoro-4-{[6-methoxy-7-(3-morpholinopropoxy)-4-quinolyl]oxy}phenyl)urea]	0 (KDR phosphorylation 50% inhibitory concentration [μM]/c-fms phosphorylation 50% inhibitory concentration [μM] was less than 5)
3.1 nM	COc1cc(Oc2ccnc3cc(OC)c(OC)cc23)ccc1NC(=O)NC(C)c1ccc(F)cc1 (stereo not shown) [Example 16, N-{4-[(6,7-Dimethoxy-4-quinolyl)oxy]-2-methoxyphenyl}-N′-[1-(4-fluorophenyl)ethyl]urea]	0 (KDR phosphorylation 50% inhibitory concentration [μM]/c-fms phosphorylation 50% inhibitory concentration [μM] was less than 5)
31.9 nM	COc1cc2c(Oc3ccc(NC(=O)NC(C)c4ccc(F)c(F)c4)cc3F)ccnc2cc1OCCCN1CCOCC1 (stereo not shown) [Example 65, N-[1-(3,4-Difluorophenyl)ethyl]-N′-(3-fluoro-4-{[6-methoxy-7-(3-morpholinopropoxy)-4-quinolyl]oxy}phenyl)urea]	0 (KDR phosphorylation 50% inhibitory concentration [μM]/c-fms phosphorylation 50% inhibitory concentration [μM] was less than 5)
208 nM	COc1cc2nccc(Oc3cc(C)c(NC(=O)N[C@@H](C)c4nccs4)cc3C)c2cc1OC [Example 86, N-{4-[(6,7-Dimethoxy-4-quinolyl)oxy]-2,5-dimethylphenyl}-N′-[(1S)-1-(1,3-thiazol-2-yl)ethyl]urea]	2 (when the value was 10 or more)
9.8 nM	COc1cc2c(Oc3ccc(NC(=O)NC(C)c4ccc(F)cc4)cc3F)ccnc2cc1OCCCN1CCOCC1 (stereo not shown) [Example 64, N-(3-Fluoro-4-{[6-methoxy-7-(3-morpholinopropoxy)-4-quinolyl]oxy}phenyl)-N′-[1-(4-fluorophenyl)ethyl]urea]	0 (KDR phosphorylation 50% inhibitory concentration [μM]/c-fms phosphorylation 50% inhibitory concentration [μM] was less than 5)
27.3 nM	COc1cc2nccc(Oc3ccc(NC(=O)N[C@@H](C)c4ccc(F)cc4)c(F)c3)c2cc1OC [Example 29, N-{4-[(6,7-Dimethoxy-4-quinolyl)oxy]-2-fluorophenyl}-N′-[(1S)-1-(4-fluorophenyl)ethyl]urea]	2 (when the value was 10 or more)
< 1 nM	COc1cc2nccc(Oc3ccc(NC(=O)N[C@H](C)c4ccc(F)cc4)c(C)c3)c2cc1OC [Example 15, N-{4-[(6,7-Dimethoxy-4-quinolyl)oxy]-2-methylphenyl}-N′-[(1R)-1-(4-fluorophenyl)ethyl]urea]	0 (KDR phosphorylation 50% inhibitory concentration [μM]/c-fms phosphorylation 50% inhibitory concentration [μM] was less than 5)
95.2 nM	COc1cc2nccc(Oc3ccc(NC(=O)N[C@H](C)c4nccs4)cc3)c2cc1OC [Example 79, N-{4-[(6,7-Dimethoxy-4-quinolyl)oxy]phenyl}-N′-[(1R)-1-(1,3-thiazol-2-yl)ethyl]urea]	2 (when the value was 10 or more)
9.6 nM	COc1cc2nccc(Oc3cc(C)c(NC(=O)N[C@H](C)c4cccc(Br)c4)cc3C)c2cc1OC [Example 56, N-[(1R)-1-(3-Bromophenyl)ethyl]-N′-{4-[(6,7-dimethoxy-4-quinolyl)oxy]-2,5-dimethylphenyl}urea]	0 (KDR phosphorylation 50% inhibitory concentration [μM]/c-fms phosphorylation 50% inhibitory concentration [μM] was less than 5)
268 nM	COc1cc2nccc(Oc3cc(C)c(NC(=O)NC(C)c4nc(C)cs4)cc3C)c2cc1OC (stereo not shown) [Example 93, N-{4-[(6,7-Dimethoxy-4-quinolyl)oxy]-2,5-dimethylphenyl}-N′-[1-(4-methyl-1,3-thiazol-2-yl)ethyl]urea]	1 (when the value was 5 or more)
37.4 nM	COc1ccc([C@H](C)NC(=O)Nc2ccc(Oc3ccnc4cc(OC)c(OC)cc34)cc2)cc1 [Example 53, N-{4-[(6,7-Dimethoxy-4-quinolyl)oxy]phenyl}-N′-[(1S)-1-(4-methoxyphenyl)ethyl]urea]	2 (when the value was 10 or more)
38.2 nM	COc1cc2nccc(Oc3ccc(NC(=O)N[C@@H](C)c4ccccc4OC)cc3)c2cc1OC [Example 51, N-{4-[(6,7-Dimethoxy-4-quinolyl)oxy]phenyl}-N′-[(1S)-1-(2-methoxyphenyl)ethyl]urea]	1 (when the value was 5 or more)
123 nM	COc1cc2nccc(Oc3ccc(NC(=O)N[C@@H](C)c4ccc(F)cc4)cc3Cl)c2cc1OC [Example 11, N-{3-Chloro-4-[(6,7-dimethoxy-4-quinolyl)oxy]phenyl}-N′-[(1S)-1-(4-fluorophenyl)ethyl]urea]	2 (when the value was 10 or more)
3.9 nM	COc1cc2nccc(Oc3ccc(NC(=O)NC(C)c4ccc(F)cc4)cc3OC)c2cc1OC (stereo not shown) [Example 22, N-{4-[(6,7-Dimethoxy-4-quinolyl)oxy]-3-methoxyphenyl}-N′-[1-(4-fluorophenyl)ethyl]urea]	0 (KDR phosphorylation 50% inhibitory concentration [μM]/c-fms phosphorylation 50% inhibitory concentration [μM] was less than 5)
1050 nM	COc1cc2nccc(Oc3ccc(NC(=O)N[C@@H](C)c4nccs4)cc3OC)c2cc1OC [Example 81, N-{4-[(6,7-Dimethoxy-4-quinolyl)oxy]-3-methoxyphenyl}-N′-[(1S)-1-(1,3-thiazol-2-yl)ethyl]urea]	3 (when the value was 50 or more)
